According to article PMC11358092, “Caspofungin enhances the potency of rifampin against Gram-negative bacteria” (Frontiers in Microbiology, 2024):
Counter-ions that a name gives are not always drawn.

Test system: E. coli MG1655
Experiment: High-throughput screening of FDA-approved drug library for antibiotic adjuvants (growth inhibition, OD600)
Assay type: cell-based, Escherichia coli
Details: library drug alone, LB medium, 96-well, 8 h static culture at 37°C, relative to PMBN (positive) and DMSO (negative) controls, %, table head prints no unit

SMILES	Growth inhibition, Compound [%]
CCCCCCCCCCCCCCCC[N+](C)(C)C [Cetrimonium bromide]	87
[H]/N=C(/NCCCCC)N/N=C/c1c[nH]c2ccc(OC)cc12 [Tegaserod maleate]	85
CO[C@H]1/C=C/O[C@@]2(C)Oc3c(C)c(O)c4c(c3C2=O)C2=NC3(CCN(CC(C)C)CC3)NC2=C(NC(=O)/C(C)=C\C=C\[C@H](C)[C@H](O)[C@@H](C)[C@@H](O)[C@@H](C)[C@H](OC(C)=O)[C@@H]1C)C4=O [Rifabutin]	94
CC1(C)S[C@@H]2[C@H](NC(=O)[C@H](N)c3ccccc3)C(=O)N2[C@H]1C(=O)OCOC(=O)[C@@H]1N2C(=O)C[C@H]2S(=O)(=O)C1(C)C [Sultamicillin]	106
CC1COc2c(N3CCN(C)CC3)c(F)cc3c(=O)c(C(=O)O)cn1c23 (centres unmarked) [Ofloxacin]	107
Cc1oc(=O)oc1COC(=O)N1CC[C@@H](N2CC/C(=C\C3=C(C(=O)O)N4C(=O)[C@@H](NC(=O)/C(=N/O)c5nsc(N)n5)[C@H]4SC3)C2=O)C1 [Ceftobiprole medocaril]	106
CO[C@@]1(NC(=O)C(C(=O)O)c2ccc(O)cc2)C(=O)N2C(C(=O)O)=C(CSc3nnnn3C)CO[C@@H]21 (some centres unmarked) [Latamoxef sodium]	94
Oc1cc(Cl)ccc1Oc1ccc(Cl)cc1Cl [Triclosan]	79
C[C@@H](O)[C@H]1C(=O)N2C(C(=O)O)=C(S[C@@H]3CN[C@H](C(=O)N(C)C)C3)[C@H](C)[C@H]12 [Meropenem]	90
Nc1nc(-n2cc(C(=O)O)c(=O)c3cc(F)c(N4CC(O)C4)c(Cl)c32)c(F)cc1F [Delafloxacin]	105
CN(C)[C@@H]1C(O)=C(C(N)=O)C(=O)[C@@]2(O)C(O)=C3C(=O)c4c(O)cccc4[C@@](C)(O)[C@H]3[C@H](O)[C@@H]12 [Oxytetracycline Hydrochloride]	106
COc1c(N2CCNC(C)C2)c(F)cc2c(=O)c(C(=O)O)cn(C3CC3)c12 (centres unmarked) [Gatifloxacin]	100
C[C@@H](O)[C@H]1C(=O)N2C(C(=O)O)=C(SCCN=CN)C[C@H]12 [Imipenem monohydrate]	109
CO/N=C(\C(=O)N[C@@H]1C(=O)N2C(C(=O)O)=C(COC(N)=O)CS[C@H]12)c1ccco1 [Cefuroxime sodium]	95
Cc1cc(C2CCCCC2)n(O)c(=O)c1 [Ciclopirox]	70
CCCN1C[C@H](C)[C@@H](O)[C@](C)(O)[C@@H](CC)OC(=O)[C@H](C)[C@@H](O[C@H]2C[C@@](C)(OC)[C@@H](O)[C@H](C)O2)[C@H](C)[C@@H](O[C@@H]2O[C@H](C)C[C@H](N(C)C)[C@H]2O)[C@](C)(O)C[C@H]1C [Gamithromycin]	96
O=C([O-])C1=C(CSc2nnnn2CS(=O)(=O)[O-])CS[C@@H]2[C@H](NC(=O)[C@H](O)c3ccccc3)C(=O)N12.[Na+].[Na+] [Cefonicid sodium]	59
CO/N=C(\C(=O)N[C@@H]1C(=O)N2C(C(=O)O)=CCS[C@H]12)c1csc(N)n1 [Ceftizoxime]	101
Cc1c(-c2ccccc2)oc2c(C(=O)OCCN3CCCCC3)cccc2c1=O [Flavoxate hydrochloride]	95
CNC[C@H](O)[C@@H](O)[C@H](O)[C@H](O)CO.Nc1nc(-n2cc(C(=O)O)c(=O)c3cc(F)c(N4CC(O)C4)c(Cl)c32)c(F)cc1F [Delafloxacin meglumine]	103
Cc1nnc(SCC2=C(C(=O)O)N3C(=O)[C@@H](NC(=O)Cn4cnnn4)[C@H]3SC2)s1 [Cefazolin sodium salt]	90
CO/N=C(\C(=O)N[C@@H]1C(=O)N2C(C(=O)[O-])=C(C[n+]3ccc(N)n3CCO)CS[C@H]12)c1csc(N)n1.O=S(=O)(O)O [Cefoselis Sulfate]	107
C[C@@H]1CC[C@H]2[C@@H](C)C(=O)O[C@@H]3O[C@@]4(C)CC[C@@H]1[C@]32OO4 [Artemisinin]	40
